target: Adenosine receptor A2a (Homo sapiens, UniProt P29274); assay: Evaluation of A2a Receptor Binding Affinity
Experimental: A radioligand binding test was conducted by using [3H]-NECA (5′-N-[adenine-2,8-3H]-ethylcarboxamidoadenosine) and an adenosine A2a membrane. As the adenosine A2a membrane, a cell membrane prepared from HEK-293 cells transfected with human adenosine A2a receptor was used. The membrane used for the test was prepared by incubating with a radioligand until equilibrium was reached. In order to separate the radioligand-bound membrane, the unbound radioligand was separated by using Packard filtermate Harverster and glass filter plates.10 μL of test compound dissolved in binding buffer (50 mM Tris, 10 mM MgCl2, 1 mM EDTA pH 7.4) and 20 μL of [3H]-NECA (final concentration of 37 nM) or reference inhibitor was mixed with 20 μL of A2a membrane in an unbound 96-well plate and incubated at room temperature for one hour. Prior to filtration, a 96-well harvest filter plate was coated with 0.33% polyethylenimine for 30 minutes and then washed with assay buffer. The binding reaction was transferred to the filter plate and washed three times with wash buffer. The dish was then dried, scintillant was added, and radioactivity was counted in a scintillation counter (Topcount NXT, Packard).

Sequence of Adenosine receptor A2a (P29274 whole entry): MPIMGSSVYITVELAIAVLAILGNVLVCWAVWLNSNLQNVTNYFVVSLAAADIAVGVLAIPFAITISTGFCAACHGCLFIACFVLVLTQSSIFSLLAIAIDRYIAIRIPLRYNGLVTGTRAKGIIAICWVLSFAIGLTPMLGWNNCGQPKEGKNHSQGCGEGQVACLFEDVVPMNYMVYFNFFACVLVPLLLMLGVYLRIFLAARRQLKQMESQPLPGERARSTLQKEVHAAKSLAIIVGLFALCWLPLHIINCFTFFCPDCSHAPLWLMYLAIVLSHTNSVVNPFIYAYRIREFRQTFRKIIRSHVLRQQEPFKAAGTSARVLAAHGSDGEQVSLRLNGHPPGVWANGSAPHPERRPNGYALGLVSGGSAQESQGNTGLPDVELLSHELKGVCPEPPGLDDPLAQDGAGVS

Structure (SMILES) | IC50
Nc1nc(N2CCC[C@H]2C(=O)N2CCC(C(=O)Nc3cccc(F)c3)CC2)nc2nc(-c3ccco3)nn12 [US20240217978, Example 130] | 2 nM
CCNC(=O)N1CCN(C(=O)[C@@H]2CCCN2c2nc(N)n3nc(-c4ccco4)nc3n2)CC1 [US20240217978, Example 115] | 10 nM
Nc1nc(N2CCC[C@H]2C(=O)N2CCCN(c3ncccn3)CC2)nc2nc(-c3ccco3)nn12 [US20240217978, Example 277] | 12 nM

Reference: BindingDB's records for patent US20240217978 (Chong Kun Dang Pharmaceutical, 2024)
